{"source": "the supplement of paper PMC11208160", "experiment": "recombinant barcode read abundance after kanamycin selection (control-corrected) (log10(CPM+1)); higher = more efficient recombination; sequences stand for … in AGTGCAGAGAAAATCGGCCAGTTTTCTCTGCCTGCAGTCCGCATGCCGT…AGATTTATGCAGCGGACTGCCTTTCTCCCAAAGTGATAAACCGGACAGTATCATGGACCGGTTTTCCCGGTAATCCGTATTTGCAAGGTTGGTTTCACT; site = the 11-nt target", "summary_of_the_method": "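This pooled E. coli screen matched targets with IS621 bridge RNA target-binding loops. Plating was done in duplicate on chloramphenicol/ampicillin LB agar as a control and on chloramphenicol/ampicillin/kanamycin plus 0.1 mM IPTG. Recombination efficiency reflects barcode counts at recombinant junctions as counts per million, averaged and control-corrected. The figures are log10(CPM+1).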"}
{"sequence": "ATCGGACCTTGGGTTCTAACCTGTTGCCT (site ATCGGAGCTAG)", "values": [{"measurement": "recombinant barcode read abundance (log10)", "value": 0.206}]}
{"sequence": "ATCGGACCTTGGGTTCTAACCTGTTGCCT (site ATCGGATCTAG)", "values": [{"measurement": "recombinant barcode read abundance (log10)", "value": 0.107}]}
{"sequence": "ATCGGAGCTTGGGTTCTAACCTGTTGCCT (site ATCGGAACTAG)", "values": [{"measurement": "recombinant barcode read abundance (log10)", "value": 0.196}]}
{"sequence": "ATCGGAGCTTGGGTTCTAACCTGTTGCCT (site ATCGGACCTAG)", "values": [{"measurement": "recombinant barcode read abundance (log10)", "value": 0.0265}]}
{"sequence": "ATCGGAGCTTGGGTTCTAACCTGTTGCCT (site ATCGGAGCTAG)", "values": [{"measurement": "recombinant barcode read abundance (log10)", "value": 0.775}]}
{"sequence": "ATCGGAGCTTGGGTTCTAACCTGTTGCCT (site ATCGGATCTAG)", "values": [{"measurement": "recombinant barcode read abundance (log10)", "value": 0.181}]}
{"sequence": "ATCGTACCTTGGGTTCTAACCTGTTGCTG (site ATCCTACCTAA)", "values": [{"measurement": "recombinant barcode read abundance (log10)", "value": 0.167}]}
{"sequence": "ATCGTACCTTGGGTTCTAACCTGTTGCTG (site ATCGTACCTCA)", "values": [{"measurement": "recombinant barcode read abundance (log10)", "value": 0.123}]}
{"sequence": "ATCTGTTCTTGGGTTCTAACCTGTTGCCT (site ACCTGTGCTAG)", "values": [{"measurement": "recombinant barcode read abundance (log10)", "value": 0.108}]}
{"sequence": "ATCTGTTCTTGGGTTCTAACCTGTTGCCT (site ATCTGTTCTAG)", "values": [{"measurement": "recombinant barcode read abundance (log10)", "value": 0.327}]}
{"sequence": "ATCTTAGCTTGGGTTCTAACCTGTTGCCT (site ATCTTAACTAG)", "values": [{"measurement": "recombinant barcode read abundance (log10)", "value": 0.0917}]}
{"sequence": "ATCTTAGCTTGGGTTCTAACCTGTTGCCT (site ATCTTACCTAG)", "values": [{"measurement": "recombinant barcode read abundance (log10)", "value": 0.141}]}
{"sequence": "ATCTTAGCTTGGGTTCTAACCTGTTGCCT (site ATCTTAGCTAG)", "values": [{"measurement": "recombinant barcode read abundance (log10)", "value": 0.266}]}
{"sequence": "ATCTTAGCTTGGGTTCTAACCTGTTGCCT (site ATCTTATCTAG)", "values": [{"measurement": "recombinant barcode read abundance (log10)", "value": 0.197}]}
{"sequence": "ATCTTGTCTTGGGTTCTAACCTGTTGCCG (site ATCTTGTCTAG)", "values": [{"measurement": "recombinant barcode read abundance (log10)", "value": 0.264}]}
{"sequence": "ATCTTGTCTTGGGTTCTAACCTGTTGCCG (site ATCTTGTCTCG)", "values": [{"measurement": "recombinant barcode read abundance (log10)", "value": 0.0848}]}
{"sequence": "ATCTTGTCTTGGGTTCTAACCTGTTGCGG (site ATCTTGTCTCC)", "values": [{"measurement": "recombinant barcode read abundance (log10)", "value": 1.83}]}
{"sequence": "ATCTTGTCTTGGGTTCTAACCTGTTGCGG (site CATGATACTAG)", "values": [{"measurement": "recombinant barcode read abundance (log10)", "value": 0.102}]}
{"sequence": "ATGAATGCTTGGGTTCTAACCTGTTGCCT (site ATGAATGCTAG)", "values": [{"measurement": "recombinant barcode read abundance (log10)", "value": 1.78}]}
{"sequence": "ATGAATGCTTGGGTTCTAACCTGTTGCCT (site ATGATTGCTAG)", "values": [{"measurement": "recombinant barcode read abundance (log10)", "value": 0.0173}]}
{"sequence": "ATGACCTCTTGGGTTCTAACCTGTTGCCT (site ATGACCTCTAG)", "values": [{"measurement": "recombinant barcode read abundance (log10)", "value": 1.46}]}
{"sequence": "ATGACCTCTTGGGTTCTAACCTGTTGCCT (site ATGCCCTCTAG)", "values": [{"measurement": "recombinant barcode read abundance (log10)", "value": 0.0297}]}
{"sequence": "ATGACCTCTTGGGTTCTAACCTGTTGCCT (site ATGGCCTCTAG)", "values": [{"measurement": "recombinant barcode read abundance (log10)", "value": 0.46}]}
{"sequence": "ATGACCTCTTGGGTTCTAACCTGTTGCCT (site ATGTCCTCTAG)", "values": [{"measurement": "recombinant barcode read abundance (log10)", "value": 0.0902}]}
{"sequence": "ATGAGAACTTGGGTTCTAACCTGTTGCCG (site ATGAGAACTAG)", "values": [{"measurement": "recombinant barcode read abundance (log10)", "value": 1.58}]}
{"sequence": "ATGAGAACTTGGGTTCTAACCTGTTGCCG (site ATGAGAACTCG)", "values": [{"measurement": "recombinant barcode read abundance (log10)", "value": 1.05}]}
{"sequence": "ATGAGGACTTGGGTTCTAACCTGTTGCGT (site ATGAGGACTAC)", "values": [{"measurement": "recombinant barcode read abundance (log10)", "value": 2.45}]}
{"sequence": "ATGAGGACTTGGGTTCTAACCTGTTGCGT (site CACCCCTCTCG)", "values": [{"measurement": "recombinant barcode read abundance (log10)", "value": 0.14}]}
{"sequence": "ATGAGGCCTTGGGTTCTAACCTGTTGCCT (site ATGAGGCCTAG)", "values": [{"measurement": "recombinant barcode read abundance (log10)", "value": 0.858}]}
{"sequence": "ATGAGGCCTTGGGTTCTAACCTGTTGCCT (site CTGAGGCCTAG)", "values": [{"measurement": "recombinant barcode read abundance (log10)", "value": 0.115}]}
{"sequence": "ATGAGGCCTTGGGTTCTAACCTGTTGCCT (site GTGAGGCCTAG)", "values": [{"measurement": "recombinant barcode read abundance (log10)", "value": 0.173}]}
{"sequence": "ATGAGGCCTTGGGTTCTAACCTGTTGCCT (site TTGAGGCCTAG)", "values": [{"measurement": "recombinant barcode read abundance (log10)", "value": 0.209}]}
{"sequence": "ATGCAAGCTTGGGTTCTAACCTGTTGCCT (site ATGCAAACTAG)", "values": [{"measurement": "recombinant barcode read abundance (log10)", "value": 0.898}]}
{"sequence": "ATGCAAGCTTGGGTTCTAACCTGTTGCCT (site ATGCAACCTAG)", "values": [{"measurement": "recombinant barcode read abundance (log10)", "value": 0.0657}]}
{"sequence": "ATGCAAGCTTGGGTTCTAACCTGTTGCCT (site ATGCAAGCTAG)", "values": [{"measurement": "recombinant barcode read abundance (log10)", "value": 1.48}]}
{"sequence": "ATGCAAGCTTGGGTTCTAACCTGTTGCCT (site ATGCAATCTAG)", "values": [{"measurement": "recombinant barcode read abundance (log10)", "value": 0.234}]}
